Data set [1] in a line: Combing force after leave-on hair treatment using neat material. The note with it: 0.4 ml neat material on 4 g switch, average of three switches; for Combing force, 1 Wash (gf): after 1 clarifying shampoo wash; for Combing force, 5 Washes (gf): after 5 clarifying shampoo washes. From the text: (§1) This double combing apparatus is attached to an Instron Model 5564. The switch is combed 5 times with a fine-tooth comb and hanged onto the Instron load cell. Then, the hair switch is placed in the double comb apparatus. The Instron pulls the hair vertically at a rate of 10 mm/min until the hair switch clears the final comb. The peak force as the switch passes through the top comb is reported.
The treatment is repeated to two additional switches. The treated hair switches are allowed to rest for 24 hours under controlled temperature and relative humidity conditions (27° C. and 50% RH). After this time period, each hair switch is washed with a clarifying shampoo (see shampoo washing protocol below) and allowed to air dry for 24 hours under controlled temperature and relative humidity conditions (27° C. and 50% RH). The combing force is measured for each switch and an average for the three switches is calculated. […] Linoleic acid • b.

Data set [2] can be described thus: Log P (octanol-water partition coefficient).
Text: “Log P” means octanol-water partition coefficient and is a physical property that describes a chemical's lipophilic and hydrophophilic characteristics. Log P is the logarithm of the ratio of a chemical's concentration in the octanol phase to its concentration in the aqueous phase of a two-phase system at equilibrium. The partition coefficient is a ratio of concentrations of un-ionized compound between the two solutions. Log P=Log 10 (partition coefficient). Partition coefficient=[organic]/[aqueous], where [organic] is the concentration of the compound of interest in the organic solvent (e.g., octanol), and [aqueous] is the concentration of the compound of interest in the water phase.
The nature of data set [3]: Combing force for dry hair, aqueous/ethanol treatment. As to conditions: Table 1/FIG. 1; moderately oxidatively-damaged hair; aqueous/ethanol formulation, 2.5% total conditioning agent; peak force. The text has this: A moderately oxidatively-damaged hair switch or physically damaged virgin hair switch (with weight of 4 gram and length of 8 inches) is placed in an apparatus containing two combs separated by a vertical distance of 6 inches. This double combing apparatus is attached to an Instron Model 5564. The switch is combed 5 times with a fine-tooth comb and hanged onto the Instron load cell. Then, the hair switch is placed in the double comb apparatus. The Instron pulls the hair vertically at a rate of 10 mm/min until the hair switch clears the final comb. The peak force as the switch passes through the top comb is reported. […] EtOH/H2O Leave-on Treatments Single material mixtures: 500 mg of a lipid or a lipid enhancing agent is weighed into a 20 mL vial. 19.5 g of 50/50(v/v) ethanol water mixture is then added to the vial and capped. The mixture is then agitated for 30 seconds. Shampoo Washing Protocol: An amount of 0.10 g of clarifying shampoo per gram of hair is spread via a syringe onto separate hair switch. Each application consists of adding shampoo to the hair, milking for 30 seconds followed by rinsing for 30 seconds. Shampoo is then reapplied (0.[…]), milked for 30 seconds and rinsed for 30 seconds. Leave-on Treatments with Aqueous/Ethanolic Lipid Compositions a. […] The combing force is measured for each switch and an average for the three switches is calculated. […]

Data set [4] can be described thus: Combing force for dry hair, aqueous/ethanol leave-on treatment. The note with it: Table 2/FIG. 2; physically damaged virgin hair; aqueous/ethanol leave-on formulation, 2.5% total conditioning agent.
Text: as §1

With `CCCCCCCC/C=C\CCCCCCCC(=O)O` [Oleic acid], in data set [1], the “Combing force, 1 Wash (gf)” value came out at 24 gf and the “Combing force, 5 Washes (gf)” value is on record as 58 gf. In addition, the logP (commonly a log measure of how a compound divides between an organic and an aqueous phase) in data set [2] (octanol/water) amounted to 7. Further, the “Combing Force (gf)” value in data set [3] came out at 161 gf. In turn, “Propyleneglycol monooleate [reference compound]” gave a logP in data set [2] (Table 3) of 7.5. In the case of `CCCCCCCC/C=C\CCCCCCCC(=O)OCCO` [Ethyleneglycol monooleate], the logP in data set [2] (octanol/water) was 6.9. Same read-out and setting: for `CCCCCCCCCCCCCCCCCC(=O)O` [Stearic Acid, reference compound] the value was 8. `CCCCCC/C=C\CCCCCCCC(=O)O` [Palmitoleic Acid]: in data set [4], the “Combing Force (gf)” value is 76 gf. In data set [2] (octanol/water), this compound had a logP of 6.6. As to `CCCCCCCC/C=C\CCCCCCCC(=O)OCC(O)CO` (stereo not drawn) [Glyceryl alpha-monooleate], the “Combing Force (gf)” value came to 268 gf in data set [4] and 157 gf in data set [3]. This compound also showed a logP in data set [2] (octanol/water) of 6.3.

Regarding `CCCCCCCC/C=C\CCCCCCCC(=O)OC` [Methyl Oleate, reference compound], in data set [2] (octanol/water), the logP was 8. Consider `CCCCC/C=C\C/C=C\CCCCCCCC(=O)O` [Linoleic Acid, reference compound], for which, in data set [1], the “Combing force, 1 Wash (gf)” value stood at 27 gf and the “Combing force, 5 Washes (gf)” value came to 96 gf. The same compound returned a logP in data set [2] (octanol/water) of 6.4.

For the compound `CCCCCCCC/C=C\CCCCCCCCO` [Oleyl Alcohol], the “Combing Force (gf)” value in data set [4] stood at 246 gf. This compound gave a lipophilicity (logP) in data set [2] (octanol/water) of 7. Turning to `CCCCCCCC/C=C\CCCCCCCCCCCC(=O)O` [Erucic acid, reference compound], the log partition coefficient (logP) in data set [2] (octanol/water) was 9.

The values are drawn from US11986542B2, “Composition for enhancing hair fiber properties” (The Procter & Gamble Company, priority 2016, dated 2024).
